Target: T1, Estrogen Receptor (ERα) in MCF-7 human ductal carcinoma breast cell line (Homo sapiens, UniProt P03372)
T1 construct: endogenous in cells; host or cells: MCF-7
T1 sequence (P03372 1-595): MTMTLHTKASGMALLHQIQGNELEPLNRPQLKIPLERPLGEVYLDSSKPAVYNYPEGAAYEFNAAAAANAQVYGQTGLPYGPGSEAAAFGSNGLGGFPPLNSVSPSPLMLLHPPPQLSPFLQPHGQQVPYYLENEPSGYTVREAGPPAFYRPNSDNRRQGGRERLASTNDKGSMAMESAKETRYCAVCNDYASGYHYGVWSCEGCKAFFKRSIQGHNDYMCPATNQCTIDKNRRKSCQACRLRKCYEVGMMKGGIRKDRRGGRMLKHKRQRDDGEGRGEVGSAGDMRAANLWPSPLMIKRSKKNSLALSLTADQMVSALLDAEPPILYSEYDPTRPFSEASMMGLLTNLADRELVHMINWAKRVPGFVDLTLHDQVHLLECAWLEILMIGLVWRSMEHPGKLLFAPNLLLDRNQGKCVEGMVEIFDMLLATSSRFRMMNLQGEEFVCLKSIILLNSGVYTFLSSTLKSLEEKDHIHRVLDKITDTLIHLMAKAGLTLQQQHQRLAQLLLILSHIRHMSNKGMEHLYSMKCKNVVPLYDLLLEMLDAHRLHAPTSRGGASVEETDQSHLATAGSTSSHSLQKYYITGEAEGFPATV
Experiment: MCF-7 ER degradation assay (cell based immuno-fluorescence)
Conditions: MCF-7 cells; for ER degradation ≥ 90% at 0.3 μM: ER degradation by fulvestrant at 0.3 μM is defined as 100%; for DC50: 18-22 hours incubation, 50% reduction of ERα expression, single experiment or average of two or more, read-out: MCF-7 ER degradation IC50
Method in brief: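 MCF-7 human ductal carcinoma breast cells were seeded at 3.75×10^4 cells per mL (40 μL per well) in 384 well plates with phenol red free DMEM containing 2 mM L-Glutamine and 5% (v/v) Charcoal/Dextran treated foetal calf serum. After overnight culture, compounds were acoustically dispensed, incubated 18-22 hours, then cells were formaldehyde-fixed and immunostained for ERα.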

`Cc1ncsc1-c1ccc([C@H](C)NC(=O)[C@@H]2C[C@@H](O)CN2C(=O)[C@@H](NC(=O)COCCc2ccc(COc3cc(F)c([C@@H]4c5[nH]c6ccccc6c5C[C@@H](C)N4CC(C)(C)F)c(F)c3)nc2)C(C)(C)C)cc1` [Example 159, (2S,4R)-1-((S)-2-(2-(2-(6-((3,5-Difluoro-4-((1R,3R)-2-(2-fluoro-2-methylpropyl)-3-methyl-2,3,4,9-tetrahydro-1H-pyrido[3,4-b]indol-1-yl)phenoxy)methyl)pyridin-3-yl)ethoxy)acetamido)-3,3-dimethylbutanoyl)-4-hydroxy-N—((S)-1-(4-(4-methylthiazol-5-yl)phenyl)ethyl)pyrrolidine-2-carboxamide] was tested, and the “ER degradation ≥ 90% at 0.3 μM” value was “••” and the DC50 was 0.5 nM.
In the case of `Cc1ncsc1-c1ccc(CNC(=O)[C@@H]2C[C@@H](O)CN2C(=O)[C@@H](NC(=O)COCCCCC(=O)NCCOc2cc(F)c([C@@H]3c4[nH]c5ccccc5c4C[C@@H](C)N3CC(C)(C)F)c(F)c2)C(C)(C)C)cc1` [Example 142, (2S,4R)-1-((S)-2-(2-((5-((2-(3,5-Difluoro-4-((1R,3R)-2-(2-fluoro-2-methylpropyl)-3-methyl-2,3,4,9-tetrahydro-1H-pyrido[3,4-b]indol-1-yl)phenoxy)ethyl)amino)-5-oxopentyl)oxy)acetamido)-3,3-dimethylbutanoyl)-4-hydroxy-N-(4-(4-methylthiazol-5-yl)benzyl)pyrrolidine-2-carboxamide], the “ER degradation ≥ 90% at 0.3 μM” value is reported as “••” and the DC50 is reported as 0.2 nM.
`Cc1ncsc1-c1ccc(CNC(=O)[C@@H]2C[C@@H](O)CN2C(=O)[C@@H](NC(=O)COCCCCCOCCOc2cc(F)c([C@@H]3c4[nH]c5ccccc5c4C[C@@H](C)N3CC(C)(C)F)c(F)c2)C(C)(C)C)cc1` [Example 9, (2S,4R)-1-((S)-2-(2-((5-(2-(3,5-Difluoro-4-((1R,3R)-2-(2-fluoro-2-methylpropyl)-3-methyl-2,3,4,9-tetrahydro-1H-pyrido[3,4-b]indol-1-yl)phenoxy)ethoxy)pentyl)oxy)acetamido)-3,3-dimethylbutanoyl)-4-hydroxy-N-(4-(4-methylthiazol-5-yl)benzyl)pyrrolidine-2-carboxamide] was tested, and the “ER degradation ≥ 90% at 0.3 μM” value was “••” and the DC50 was 0.7 nM.
For `Cc1ncsc1-c1ccc(CNC(=O)[C@@H]2C[C@@H](O)CN2C(=O)[C@@H](NC(=O)COCCOCCCCCOc2cc(F)c([C@@H]3c4[nH]c5ccccc5c4C[C@@H](C)N3CC(F)(F)F)c(F)c2)C(C)(C)C)cc1` [Example 139, (2S,4R)-1-((S)-2-(2-(2-((5-(3,5-Difluoro-4-((1R,3R)-3-methyl-2-(2,2,2-trifluoroethyl)-2,3,4,9-tetrahydro-1H-pyrido[3,4-b]indol-1-yl)phenoxy)pentyl)oxy)ethoxy)acetamido)-3,3-dimethylbutanoyl)-4-hydroxy-N-(4-(4-methylthiazol-5-yl)benzyl)pyrrolidine-2-carboxamide], the “ER degradation ≥ 90% at 0.3 μM” value was “••” and the DC50 was 1.1 nM.
`Cc1ncsc1-c1ccc([C@@H](CN)NC(=O)[C@@H]2C[C@@H](O)CN2C(=O)[C@@H](NC(=O)COCCOCCOCCOc2cc(F)c([C@@H]3c4[nH]c5ccccc5c4C[C@@H](C)N3CC(C)(C)F)c(F)c2)C(C)(C)C)cc1` [Example 106, (2S,4R)—N-[(1S)-2-amino-1-[4-(4-methylthiazol-5-yl)phenyl]ethyl]-1-[(2S)-2-[[2-[2-[2-[2-[3,5-difluoro-4-[(1R,3R)-2-(2-fluoro-2-methyl-propyl)-3-methyl-1,3,4,9-tetrahydropyrido[3,4-b]indol-1-yl]phenoxy]ethoxy]ethoxy]ethoxy]acetyl]amino]-3,3-dimethyl-butanoyl]-4-hydroxy-pyrrolidine-2-carboxamide] was tested, and the “ER degradation ≥ 90% at 0.3 μM” value was “•” and the DC50 was 0.9 nM.
For `Cc1ncsc1-c1ccc(CNC(=O)[C@@H]2C[C@@H](O)CN2C(=O)[C@@H](NC(=O)CNCCCCCCCCOc2cc(F)c([C@@H]3c4[nH]c5ccccc5c4C[C@@H](C)N3CC(C)(C)F)c(F)c2)C(C)(C)C)cc1` [Example 147, (2S,4R)-1-((S)-2-(2-((8-(3,5-Difluoro-4-((1R,3R)-2-(2-fluoro-2-methylpropyl)-3-methyl-2,3,4,9-tetrahydro-1H-pyrido[3,4-b]indol-1-yl)phenoxy)octyl)amino)acetamido)-3,3-dimethylbutanoyl)-4-hydroxy-N-(4-(4-methylthiazol-5-yl)benzyl)pyrrolidine-2-carboxamide], the “ER degradation ≥ 90% at 0.3 μM” value was “•” and the DC50 was 5.8 nM.
For `Cc1ncsc1-c1ccc(CNC(=O)[C@@H]2C[C@@H](O)CN2C(=O)[C@@H](NC(=O)COCc2ccc(C(=O)Nc3cc(F)c([C@@H]4c5[nH]c6ccccc6c5C[C@@H](C)N4CC(C)(C)F)c(F)c3)nc2)C(C)(C)C)cc1` [Example 144, N-(3,5-Difluoro-4-((1R,3R)-2-(2-fluoro-2-methylpropyl)-3-methyl-2,3,4,9-tetrahydro-1H-pyrido[3,4-b]indol-1-yl)phenyl)-5-((2-(((S)-1-((2S,4R)-4-hydroxy-2-((4-(4-methylthiazol-5-yl)benzyl)carbamoyl)pyrrolidin-1-yl)-3,3-dimethyl-1-oxobutan-2-yl)amino)-2-oxoethoxy)methyl)picolinamide], the “ER degradation ≥ 90% at 0.3 μM” value was “••” and the DC50 was 0.5 nM.
With `Cc1ncsc1-c1ccc(CNC(=O)[C@@H]2C[C@@H](O)CN2C(=O)[C@@H](NC(=O)COCCCCCCOc2cc(F)c([C@@H]3c4[nH]c5ccccc5c4C[C@@H](C)N3CC(C)(C)F)c(F)c2)C(C)(C)C)cc1` [Example 51, (2S,4R)-1-((S)-2-(2-((6-(3,5-difluoro-4-((1R,3R)-2-(2-fluoro-2-methylpropyl)-3-methyl-2,3,4,9-tetrahydro-1H-pyrido[3,4-b]indol-1-yl)phenoxy)hexyl)oxy)acetamido)-3,3-dimethylbutanoyl)-4-hydroxy-N-(4-(4-methylthiazol-5-yl)benzyl)pyrrolidine-2-carboxamide] the “ER degradation ≥ 90% at 0.3 μM” value was “•” and the DC50 was 6.8 nM.
For `Cc1ncsc1-c1ccc(CNC(=O)[C@@H]2C[C@@H](O)CN2C(=O)[C@@H](NC(=O)COCCCCCOc2cc(F)c([C@@H]3c4[nH]c5ccccc5c4C[C@@H](C)N3CC(C)(C)F)c(F)c2)C(C)(C)C)cc1` [Example 18, (2S,4R)-1-((S)-2-(2-((5-(3,5-Difluoro-4-((1R,3R)-2-(2-fluoro-2-methylpropyl)-3-methyl-2,3,4,9-tetrahydro-1H-pyrido[3,4-b]indol-1-yl)phenoxy)pentyl)oxy)acetamido)-3,3-dimethylbutanoyl)-4-hydroxy-N-(4-(4-methylthiazol-5-yl)benzyl)pyrrolidine-2-carboxamide], the “ER degradation ≥ 90% at 0.3 μM” value was “•” and the DC50 was 1 nM.
For `Cc1ncsc1-c1ccc(CNC(=O)[C@@H]2C[C@@H](O)CN2C(=O)[C@@H](NC(=O)C(F)(F)OCCCOCCCOc2cc(F)c([C@@H]3c4[nH]c5ccccc5c4C[C@@H](C)N3CC(C)(C)F)c(F)c2)C(C)(C)C)cc1` [Example 119, (2S,4R)-1-((S)-2-(2-(3-(3-(3,5-Difluoro-4-((1R,3R)-2-(2-fluoro-2-methylpropyl)-3-methyl-2,3,4,9-tetrahydro-1H-pyrido[3,4-b]indol-1-yl)phenoxy)propoxy)propoxy)-2,2-difluoroacetamido)-3,3-dimethylbutanoyl)-4-hydroxy-N-(4-(4-methylthiazol-5-yl)benzyl)pyrrolidine-2-carboxamide], the “ER degradation ≥ 90% at 0.3 μM” value was “•” and the DC50 was 1.4 nM.
With `Cc1ncsc1-c1ccc(CNC(=O)[C@@H]2C[C@@H](O)CN2C(=O)[C@@H](NC(=O)CCCOc2cccc(COc3cc(F)c([C@@H]4c5[nH]c6ccccc6c5C[C@@H](C)N4CC(C)(C)F)c(F)c3)n2)C(C)(C)C)cc1` [Example 162, (2S,4R)-1-((S)-2-(4-((6-((3,5-Difluoro-4-((1R,3R)-2-(2-fluoro-2-methylpropyl)-3-methyl-2,3,4,9-tetrahydro-1H-pyrido[3,4-b]indol-1-yl)phenoxy)methyl)pyridin-2-yl)oxy)butanamido)-3,3-dimethylbutanoyl)-4-hydroxy-N-(4-(4-methylthiazol-5-yl)benzyl)pyrrolidine-2-carboxamide] the “ER degradation ≥ 90% at 0.3 μM” value was “•” and the DC50 was 1.8 nM.
For `Cc1ncsc1-c1ccc(CNC(=O)[C@@H]2C[C@@H](OC(=O)[C@@H]3CCCN3)CN2C(=O)[C@@H](NC(=O)CCCCCCCCCCOc2cc(F)c([C@@H]3c4[nH]c5ccccc5c4C[C@@H](C)N3CC(C)(C)F)c(F)c2)C(C)(C)C)cc1` [Example 33, (3R,5S)-1-((S)-2-(11-(3,5-Difluoro-4-((1R,3R)-2-(2-fluoro-2-methylpropyl)-3-methyl-2,3,4,9-tetrahydro-1H-pyrido[3,4-b]indol-1-yl)phenoxy)undecanamido)-3,3-dimethylbutanoyl)-5-((4-(4-methylthiazol-5-yl)benzyl)carbamoyl)pyrrolidin-3-yl L-prolinate], the “ER degradation ≥ 90% at 0.3 μM” value was “••” and the DC50 was 29 nM.
